Laboratory results as given in patent US11548870B2, “Compounds useful as inhibitors of helios protein” (Bristol-Myers Squibb Company, priority 2019, dated 2023).
Read-outs that look alike come from different tables or passages of the source.

How the values were obtained:
Ikaros = molecular target: T1, Ikaros (Homo sapiens, UniProt Q13422); assay: Helios Cellular Degradation Assay, Ikaros readout (flow cytometry, Ikaros-Alexa488 antibody staining, 72 h); format: cell-based; settings: Jurkat cells, 72 h incubation, flow cytometry; for Dmax: Jurkat, read-out: Ikaros Dmax
T1 construct: fluorescently labelled antibodies against Helios and Ikaros; endogenous in cells; host or cells: Jurkat cells
T1 sequence (Q96SW2 whole entry partner): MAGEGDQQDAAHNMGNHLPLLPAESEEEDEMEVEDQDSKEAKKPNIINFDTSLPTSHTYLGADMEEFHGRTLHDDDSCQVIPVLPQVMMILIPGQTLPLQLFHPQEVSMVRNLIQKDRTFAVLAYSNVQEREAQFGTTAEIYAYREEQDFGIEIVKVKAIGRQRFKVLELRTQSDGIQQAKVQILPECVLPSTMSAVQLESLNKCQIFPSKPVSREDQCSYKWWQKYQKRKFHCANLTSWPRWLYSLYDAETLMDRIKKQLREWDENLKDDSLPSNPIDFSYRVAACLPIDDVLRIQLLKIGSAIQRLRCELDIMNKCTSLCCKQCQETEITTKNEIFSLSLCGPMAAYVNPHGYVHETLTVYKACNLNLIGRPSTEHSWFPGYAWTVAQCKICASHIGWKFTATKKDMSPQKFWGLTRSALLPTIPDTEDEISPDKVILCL
T1 sequence (Q16531 whole entry partner): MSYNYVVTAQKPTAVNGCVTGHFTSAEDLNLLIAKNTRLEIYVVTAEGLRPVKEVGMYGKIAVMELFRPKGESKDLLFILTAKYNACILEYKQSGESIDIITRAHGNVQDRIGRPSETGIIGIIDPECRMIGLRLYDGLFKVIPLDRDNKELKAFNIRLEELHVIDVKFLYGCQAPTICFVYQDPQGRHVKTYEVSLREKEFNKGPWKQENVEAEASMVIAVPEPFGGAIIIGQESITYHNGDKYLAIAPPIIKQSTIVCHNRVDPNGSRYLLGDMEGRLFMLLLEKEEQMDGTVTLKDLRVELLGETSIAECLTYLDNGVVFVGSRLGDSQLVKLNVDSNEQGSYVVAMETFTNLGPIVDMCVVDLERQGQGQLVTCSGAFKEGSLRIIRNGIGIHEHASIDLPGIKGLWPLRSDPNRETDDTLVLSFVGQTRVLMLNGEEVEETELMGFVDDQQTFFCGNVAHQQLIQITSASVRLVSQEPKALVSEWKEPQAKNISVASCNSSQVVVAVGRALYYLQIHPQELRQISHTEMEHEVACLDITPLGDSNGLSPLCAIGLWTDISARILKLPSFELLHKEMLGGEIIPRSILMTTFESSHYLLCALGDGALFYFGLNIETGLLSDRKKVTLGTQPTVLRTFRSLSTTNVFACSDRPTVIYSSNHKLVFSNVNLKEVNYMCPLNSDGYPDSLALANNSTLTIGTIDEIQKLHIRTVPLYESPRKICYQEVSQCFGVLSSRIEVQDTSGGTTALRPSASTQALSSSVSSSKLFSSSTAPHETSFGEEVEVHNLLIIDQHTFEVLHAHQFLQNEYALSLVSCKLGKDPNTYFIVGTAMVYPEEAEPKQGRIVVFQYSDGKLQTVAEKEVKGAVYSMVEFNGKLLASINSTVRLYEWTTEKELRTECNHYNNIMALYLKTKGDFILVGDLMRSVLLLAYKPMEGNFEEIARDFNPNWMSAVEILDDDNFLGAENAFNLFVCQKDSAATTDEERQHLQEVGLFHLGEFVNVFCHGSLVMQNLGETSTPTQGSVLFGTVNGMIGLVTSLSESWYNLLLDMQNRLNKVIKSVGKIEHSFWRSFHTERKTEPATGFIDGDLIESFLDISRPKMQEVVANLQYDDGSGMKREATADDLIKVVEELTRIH
T1 sequence (Q13422 whole entry): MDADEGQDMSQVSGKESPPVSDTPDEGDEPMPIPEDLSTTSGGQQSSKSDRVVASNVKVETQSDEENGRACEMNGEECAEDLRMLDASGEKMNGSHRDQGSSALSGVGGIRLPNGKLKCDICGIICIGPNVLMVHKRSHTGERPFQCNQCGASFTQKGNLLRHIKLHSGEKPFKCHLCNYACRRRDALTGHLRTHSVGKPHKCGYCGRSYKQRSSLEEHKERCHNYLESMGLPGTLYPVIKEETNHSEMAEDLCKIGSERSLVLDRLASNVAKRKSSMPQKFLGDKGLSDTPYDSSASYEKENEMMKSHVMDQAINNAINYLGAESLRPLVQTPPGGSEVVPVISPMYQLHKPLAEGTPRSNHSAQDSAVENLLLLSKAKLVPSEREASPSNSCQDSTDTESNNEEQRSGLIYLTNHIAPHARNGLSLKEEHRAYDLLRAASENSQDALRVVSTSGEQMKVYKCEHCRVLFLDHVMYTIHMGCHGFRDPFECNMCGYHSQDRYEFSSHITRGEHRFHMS
Summary of the method: (§1)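 Jurkat cells (80,000/well, RPMI+10% FBS) were exposed to compound for 72 h at 37 °C, then fixed, permeabilized and co-stained for 1 h with Ikaros-Alexa488 and Helios-PE antibodies. Intracellular protein levels were read by flow cytometry.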

Helios = molecular target: T2, Helios (Homo sapiens, UniProt Q96SW2+Q9UKS7); assay: Helios Cellular Degradation Assay (flow cytometry, Helios-PE antibody staining, 72 h); format: cell-based; settings: for Dmax: Jurkat, read-out: Helios Dmax
T2 construct: fluorescently labelled antibodies against Helios and Ikaros; endogenous in cells; host or cells: Jurkat cells
T2 sequence (Q9UKS7 whole entry): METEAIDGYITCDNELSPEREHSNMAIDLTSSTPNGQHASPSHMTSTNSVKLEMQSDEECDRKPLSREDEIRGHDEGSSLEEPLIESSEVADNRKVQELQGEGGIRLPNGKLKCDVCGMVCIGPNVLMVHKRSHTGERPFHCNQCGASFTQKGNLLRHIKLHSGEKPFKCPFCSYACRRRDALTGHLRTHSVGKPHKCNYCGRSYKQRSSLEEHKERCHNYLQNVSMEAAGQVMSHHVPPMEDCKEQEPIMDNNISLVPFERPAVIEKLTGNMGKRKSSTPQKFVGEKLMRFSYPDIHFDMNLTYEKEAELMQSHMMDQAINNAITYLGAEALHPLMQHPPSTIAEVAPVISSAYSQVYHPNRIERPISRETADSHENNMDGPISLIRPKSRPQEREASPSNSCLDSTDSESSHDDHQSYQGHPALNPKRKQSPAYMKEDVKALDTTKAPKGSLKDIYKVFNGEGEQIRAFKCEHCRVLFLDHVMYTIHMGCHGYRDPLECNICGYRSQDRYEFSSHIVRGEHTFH
T2 sequence (Q96SW2 whole entry): as the sequence (Q96SW2 whole entry partner) above
T2 sequence (Q16531 whole entry partner): as the sequence (Q16531 whole entry partner) above
Summary of the method: as §1

[1] = Jurkat cells, 72 h incubation, flow cytometry

Row | Compound | DC50 (Ikaros) [nM] | Dmax (Ikaros) [%] | DC50 (Helios; [1]) [nM] | Dmax (Helios; [1]) [%] | Dmax (Helios) [%]
1 | O=C1CCC(N2Cc3cc(-c4cc(CNCCOc5ccccc5)ccn4)ccc3C2=O)C(=O)N1 (centres unmarked) [Example 103, 3-(1-oxo-5-(4-(((2-phenoxyethyl)amino)methyl)pyridin-2-yl)isoindolin-2-yl)piperidine-2,6-dione] | > 10000 | 1 | 36 | 95 | –
2 | NC(=O)CCNCc1ccnc(-c2ccc3c(c2)CN(C2CCC(=O)NC2=O)C3=O)c1 (centres unmarked) [Example 105, 3-(((2-(2-(2,6-dioxopiperidin-3-yl)-1-oxoisoindolin-5-yl)pyridin-4-yl)methyl)amino)propanamide] | > 10000 | 5 | 264 | 79 | –
3 | O=C1CCC(N2Cc3cc(-c4cc(CNCCc5nc6ccccc6s5)ccn4)ccc3C2=O)C(=O)N1 (centres unmarked) [Example 106, 3-(5-(4-(((2-(benzo[d]thiazol-2-yl)ethyl)amino)methyl)pyridin-2-yl)-1-oxoisoindolin-2-yl)piperidine-2,6-dione] | > 10000 | 12 | 72 | 79 | –
4 | O=C1CCC(N2Cc3cc(-c4cc(CNC5CCC5)ccn4)ccc3C2=O)C(=O)N1 (centres unmarked) [Example 108, 3-(5-(4-((cyclobutylamino)methyl)pyridin-2-yl)-1-oxoisoindolin-2-yl)piperidine-2,6-dione] | > 10000 | 15 | 45 | 84 | –
5 | O=C1CCC(N2Cc3cc(-c4cc(CNCc5csc(-c6ccccc6)n5)ccn4)ccc3C2=O)C(=O)N1 (centres unmarked) [Example 110, 3-(1-oxo-5-(4-((((2-phenylthiazol-4-yl)methyl)amino)methyl)pyridin-2-yl)isoindolin-2-yl)piperidine-2,6-dione] | > 10000 | 7 | 48 | 71 | –
6 | COC(=O)CCNCc1ccnc(-c2ccc3c(c2)CN(C2CCC(=O)NC2=O)C3=O)c1 (centres unmarked) [Example 112, methyl 3-(((2-(2-(2,6-dioxopiperidin-3-yl)-1-oxoisoindolin-5-yl)pyridin-4-yl)methyl)amino)propanoate] | > 10000 | 2 | 921 | 74 | –
7 | O=C1CCC(N2Cc3cc(-c4cc(CNCCCN5CCCC5=O)ccn4)ccc3C2=O)C(=O)N1 (centres unmarked) [Example 115, 3-(1-oxo-5-(4-(((3-(2-oxopyrrolidin-1-yl)propyl)amino)methyl)pyridin-2-yl)isoindolin-2-yl)piperidine-2,6-dione] | > 10000 | 6 | 528 | 78 | –
8 | CCNCc1ccnc(-c2ccc3c(c2)CN(C2CCC(=O)NC2=O)C3=O)c1 (centres unmarked) [Example 116, 3-(5-(4-((ethylamino)methyl)pyridin-2-yl)-1-oxoisoindolin-2-yl)piperidine-2,6-dione] | > 10000 | 12 | 25 | 88 | –
9 | CC1(C)CCN(Cc2ccnc(-c3ccc4c(c3)CN(C3CCC(=O)NC3=O)C4=O)c2)C1 (centres unmarked) [Example 118, 3-(5-(4-((3,3-dimethylpyrrolidin-1-yl)methyl)pyridin-2-yl)-1-oxoisoindolin-2-yl)piperidine-2,6-dione] | > 10000 | 12 | 11 | 90 | –
10 | C[C@@H]1CCC[C@H](C)N1Cc1ccnc(-c2ccc3c(c2)CN(C2CCC(=O)NC2=O)C3=O)c1 (stereo partly drawn) [Example 120, 3-(5-(4-(((2R,6S)-2,6-dimethylpiperidin-1-yl)methyl)pyridin-2-yl)-1-oxoisoindolin-2-yl)piperidine-2,6-dione] | > 10000 | 3 | 85 | 84 | –
11 | CC1(c2ccc(N)cc2)CCN(Cc2ccnc(-c3ccc4c(c3)CN(C3CCC(=O)NC3=O)C4=O)c2)CC1 (centres unmarked) [Example 121, 3-(5-(4-((4-(4-aminophenyl)-4-methylpiperidin-1-yl)methyl)pyridin-2-yl)-1-oxoisoindolin-2-yl)piperidine-2,6-dione] | > 10000 | 19 | 24 | – | 77
12 | C[C@@H](NCc1ccnc(-c2ccc3c(c2)CN(C2CCC(=O)NC2=O)C3=O)c1)c1ccccc1 (stereo partly drawn) [Example 122, 3-(1-oxo-5-(4-((((R)-1-phenylethyl)amino)methyl)pyridin-2-yl)isoindolin-2-yl)piperidine-2,6-dione] | > 10000 | 4 | 14 | 88 | –

The next lines start with results.

Row | DC50 (Ikaros) [nM] | Dmax (Ikaros) [%] | DC50 (Helios; [1]) [nM] | Dmax (Helios; [1]) [%] | Compound | Dmax (Helios) [%]
13 | > 10000 | 1 | > 10000 | 44 | O=C1CCC(N2Cc3cc(-c4cc(CNC5CCN(Cc6ccccc6)C5)ccn4)ccc3C2=O)C(=O)N1 (centres unmarked) [Example 104, 3-(5-(4-(((1-benzylpyrrolidin-3-yl)amino)methyl)pyridin-2-yl)-1-oxoisoindolin-2-yl) piperidine-2,6-dione] | –
14 | > 10000 | 15 | 494 | 80 | CN(C)C1CCC(NCc2ccnc(-c3ccc4c(c3)CN(C3CCC(=O)NC3=O)C4=O)c2)CC1 (centres unmarked) [Example 107, 3-(5-(4-(((4-(dimethylamino)cyclohexyl)amino)methyl)pyridin-2-yl)-1-oxoisoindolin-2-yl) piperidine-2,6-dione] | –
15 | > 10000 | 15 | 48 | 75 | O=C1CCC(N2Cc3cc(-c4cc(CNC5CC5)ccn4)ccc3C2=O)C(=O)N1 (centres unmarked) [Example 109, 3-(5-(4-((cyclopropylamino)methyl)pyridin-2-yl)-1-oxoisoindolin-2-yl)piperidine-2,6-dione] | –
16 | > 10000 | 10 | 137 | 75 | O=C1CCC(N2Cc3cc(-c4cc(CN[C@@H]5C[C@H]5c5ccccc5)ccn4)ccc3C2=O)C(=O)N1 (stereo partly drawn) [Example 111, 3-(1-oxo-5-(4-((((1R,2S)-2-phenylcyclopropyl)amino)methyl)pyridin-2-yl)isoindolin-2-yl)piperidine-2,6-dione] | –
17 | > 10000 | 8 | 287 | 81 | O=C1CCC(N2Cc3cc(-c4cc(CNCCCn5ccnc5)ccn4)ccc3C2=O)C(=O)N1 (centres unmarked) [Example 113, 3-(5-(4-(((3-(1H-imidazol-1-yl)propyl)amino)methyl)pyridin-2-yl)-1-oxoisoindolin-2-yl)piperidine-2,6-dione] | –
18 | > 10000 | 2 | 63 | 83 | O=C1CCC(N2Cc3cc(-c4cc(CNCCCN5CCOCC5)ccn4)ccc3C2=O)C(=O)N1 (centres unmarked) [Example 114, 3-(5-(4-(((3-morpholinopropyl)amino)methyl)pyridin-2-yl)-1-oxoisoindolin-2-yl)piperidine-2,6-dione] | –
19 | > 10000 | 3 | 53 | 77 | CC1(C)CCCN1Cc1ccnc(-c2ccc3c(c2)CN(C2CCC(=O)NC2=O)C3=O)c1 (centres unmarked) [Example 117, 3-(5-(4-((2,2-dimethylpyrrolidin-1-yl)methyl)pyridin-2-yl)-1-oxoisoindolin-2-yl)piperidine-2,6-dione] | –
20 | > 10000 | 3 | 2360 | 53 | CC1CCC(C)N1Cc1ccnc(-c2ccc3c(c2)CN(C2CCC(=O)NC2=O)C3=O)c1 (centres unmarked) [Example 119, 3-(5-(4-((2,5-dimethylpyrrolidin-1-yl)methyl)pyridin-2-yl)-1-oxoisoindolin-2-yl)piperidine-2,6-dione] | –
